In US11299512B2 (priority 2016, dated 2022):
Read-outs that look alike come from different tables or passages of the source.

Test system: THP1 luciferase reporter cells
Experiment: cells
Format: cell-based
[1] = 16 hours, read-out: THP1-ISG-Luc with PFO, EC50
[2] = 16 hours, read-out: THP-ISG-Luc without PFO, EC50
[3] = Homo sapiens, THP-1, 16 h, read-out: THP1-ISG-Luc with PFO, EC50
[4] = Homo sapiens, THP-1, 16 h, read-out: THP-ISG-Luc without PFO, EC50

| SMILES | EC50 [1] [µM] | EC50 [2] [µM] | EC50 [3] [µM] | EC50 [4] [µM] |
| --- | --- | --- | --- | --- |
| Nc1nc2c(ncn2[C@@H]2O[C@@H]3COP(=O)(S)OC4C(O)[C@H](n5ncc6c(N)ncnc65)O[C@@H]4COP(=O)(S)OC2C3O)c(=O)[nH]1 (single isomer, unassigned) [EA4] | 0.1 to 1 | < 30 | – | – |
| Nc1nc2c(ncn2[C@@H]2O[C@@H]3COP(=O)(S)OC4C(O)[C@H](n5ncc6c(N)ncnc65)O[C@@H]4COP(=O)(S)OC2C3O)c(=O)[nH]1 (single isomer, unassigned) [EA5] | > 1 | > 100 | – | – |
| Nc1nc2c(ccn2[C@@H]2O[C@@H]3COP(=O)(S)OC4C(O)[C@H](n5cnc6c(N)ncnc65)O[C@@H]4COP(=O)(S)OC2C3O)c(=O)[nH]1 (single isomer, unassigned) [EA6] | > 1 | > 100 | – | – |
| Nc1nc2c(ccn2[C@@H]2O[C@@H]3COP(=O)(S)O[C@@H]4C(O)[C@H](n5cnc6c(N)ncnc65)O[C@@H]4COP(=O)(S)O[C@H]2C3O)c(=O)[nH]1 (single isomer, unassigned) [EA7] | – | – | 0.1 to 1 | < 30 |
| Nc1nc2c(ccn2[C@@H]2O[C@@H]3COP(=O)(S)OC4C(O)[C@H](n5cnc6c(N)ncnc65)O[C@@H]4COP(=O)(S)OC2C3O)c(=O)[nH]1 (single isomer, unassigned) [EA8] | 0.1 to 1 | < 30 | – | – |
| BP1(=O)OC[C@H]2O[C@@H](n3cnc4c(N)ncnc43)C(O)C2OP(=O)(O)OC[C@H]2O[C@@H](n3cnc4c(=O)[nH]c(N)nc43)C(O1)C2O (single isomer, unassigned) [EA9] | – | – | < 0.1 | < 30 |
| Nc1nc2c(ccn2[C@@H]2O[C@@H]3COP(=O)(O)OC4C(O)[C@H](n5ccc6c(N)ncnc65)O[C@@H]4COP(=O)(S)OC2C3O)c(=O)[nH]1 (single isomer, unassigned) [EB1] | > 1 | – | – | 30 to 100 |
| Nc1nc2c(ccn2[C@@H]2O[C@@H]3COP(=O)(O)OC4C(O)[C@H](n5ccc6c(N)ncnc65)O[C@@H]4COP(=O)(S)OC2C3O)c(=O)[nH]1 (single isomer, unassigned) [EB2] | < 0.1 | < 30 | – | – |
| Nc1nc2c(ccn2[C@@H]2O[C@@H]3COP(=O)(O)OC4C(O)[C@H](n5cnc6c(N)ncnc65)O[C@@H]4COP(=O)(S)OC2C3O)c(=O)[nH]1 (single isomer, unassigned) [EB4] | – | – | > 1 | 30 to 100 |
| Nc1nc2c(cnn2[C@@H]2O[C@@H]3COP(=O)(S)OC4C(O)[C@H](n5cnc6c(N)ncnc65)O[C@@H]4COP(=O)(S)OC2C3O)c(=O)[nH]1 (single isomer, unassigned) [EB7] | – | – | > 1 | > 100 |
| Nc1nc2c(ncn2[C@@H]2O[C@@H]3COP(=O)(O)OC4C(O)[C@H](n5ccc6c(N)ncnc65)O[C@@H]4COP(=O)(S)OC2C3OCC(F)(F)F)c(=O)[nH]1 (single isomer, unassigned) [EC2] | – | – | 0.1 to 1 | 30 to 100 |
| Nc1nc2c(ccn2[C@@H]2O[C@@H]3COP(=O)(S)OC4C(O)[C@@H](COP(=O)(O)OC3C2O)O[C@H]4n2ccc3c(=O)[nH]c(N)nc32)c(=O)[nH]1 (single isomer, unassigned) [EC4] | > 1 | > 100 | – | – |
| Nc1nc2c(ccn2[C@@H]2O[C@@H]3COP(=O)(S)OC4C(O)[C@@H](COP(=O)(O)OC3C2O)O[C@H]4n2ccc3c(=O)[nH]c(N)nc32)c(=O)[nH]1 (single isomer, unassigned) [EC5] | 0.1 to 1 | 30 to 100 | – | – |
| Nc1nc2c(ccn2[C@@H]2O[C@@H]3COP(=O)(S)OC4C(O)[C@@H](COP(=O)(O)OC3C2O)O[C@H]4n2ccc3c(N)ncnc32)c(=O)[nH]1 (single isomer, unassigned) [EC8] | – | – | > 1 | > 100 |
| Nc1nc2c(ccn2[C@@H]2O[C@@H]3COP(=O)(S)OC4C(O)[C@@H](COP(=O)(O)OC3C2O)O[C@H]4n2ccc3c(N)ncnc32)c(=O)[nH]1 (single isomer, unassigned) [EC9] | > 1 | > 100 | – | – |
| Nc1nc2c(ccn2[C@@H]2O[C@@H]3COP(=O)(O)OC4C(O)[C@@H](COP(=O)(S)OC2C3O)O[C@H]4n2cnc3c(N)ncnc32)c(=O)[nH]1 (single isomer, unassigned) [EC14] | > 1 | > 100 | – | – |
| Nc1nc2c(ccn2[C@@H]2O[C@@H]3COP(=O)(O)OC4C(O)[C@@H](COP(=O)(S)OC2C3O)O[C@H]4n2cnc3c(N)ncnc32)c(=O)[nH]1 (single isomer, unassigned) [EC15] | 0.1 to 1 | < 30 | – | – |
| Nc1nc2c(ncn2[C@@H]2O[C@@H]3COP(=O)(O)OC4C[C@H](n5ccc6ccccc65)O[C@@H]4COP(=O)(S)OC2C3O)c(=O)[nH]1 (single isomer, unassigned) [EC17] | – | – | > 1 | > 100 |
| Nc1nc2c(ncn2[C@@H]2O[C@@H]3COP(=O)(O)OC4C[C@H](n5ccc6ccccc65)O[C@@H]4COP(=O)(S)OC2C3O)c(=O)[nH]1 (single isomer, unassigned) [EC18] | > 1 | > 100 | – | – |

| SMILES | EC50 [1] [µM] | EC50 [2] [µM] | EC50 [3] [µM] | EC50 [4] [µM] |
| --- | --- | --- | --- | --- |
| Nc1nc2c(ncn2[C@@H]2O[C@@H]3COP(=O)(O)OC4C[C@H](c5ccc6ccc7cccc8ccc5c6c78)O[C@@H]4COP(=O)(S)OC2C3O)c(=O)[nH]1 (single isomer, unassigned) [EC20] | – | – | > 1 | > 100 |
| Nc1nc2c(ncn2[C@@H]2O[C@@H]3COP(=O)(O)OC4C[C@H](c5ccc6ccc7cccc8ccc5c6c78)O[C@@H]4COP(=O)(S)OC2C3O)c(=O)[nH]1 (single isomer, unassigned) [EC21] | > 1 | > 100 | – | – |
| Nc1nc2c(ncn2[C@@H]2O[C@@H]3COP(=O)(S)OC4C(O)[C@H](n5cnc6c(N)ncnc65)O[C@@H]4COP(=O)(O)OC2C3O)c(=O)[nH]1 (single isomer, unassigned) [Example E6] | – | – | < 0.1 | < 30 |
| Nc1nc2c(ncn2[C@@H]2O[C@@H]3COP(=O)(S)OC4C(O)[C@H](n5cnc6c(N)ncnc65)O[C@@H]4COP(=O)(O)OC2C3O)c(=O)[nH]1 (single isomer, unassigned) [Example E7] | < 0.1 | < 30 | – | – |
| Nc1nc2c(ncn2[C@@H]2O[C@@H]3COP(=O)(O)OC4C(O)[C@H](n5cnc6c(N)ncnc65)O[C@@H]4COP(=O)(S)OC2C3O)c(=O)[nH]1 (single isomer, unassigned) [Example E8] | – | > 100 | 0.1 to 1 | – |
| Nc1nc2c(ncn2[C@@H]2O[C@@H]3COP(=O)(O)OC4C(O)[C@H](n5cnc6c(N)ncnc65)O[C@@H]4COP(=O)(S)OC2C3O)c(=O)[nH]1 (single isomer, unassigned) [Example E9] | < 0.1 | < 30 | – | – |
| Nc1nc2c(ncn2[C@@H]2O[C@@H]3COP(=O)(S)OC4C(O)[C@H](n5cnc6c(N)ncnc65)O[C@@H]4COP(=O)(S)OC2C3O)c(=O)[nH]1 (single isomer, unassigned) [Example E12] | – | < 30 | < 0.1 | – |
| Nc1nc2c(ncn2[C@@H]2O[C@@H]3COP(=O)(S)OC4C(O)[C@H](n5cnc6c(N)ncnc65)O[C@@H]4COP(=O)(S)OC2C3O)c(=O)[nH]1 (single isomer, unassigned) [Example E13] | 0.1 to 1 | > 100 | – | – |
| Nc1nc2c(ncn2[C@@H]2O[C@@H]3COP(=O)(S)OC4C(O)[C@H](n5cnc6c(N)ncnc65)O[C@@H]4COP(=O)(S)OC2C3O)c(=O)[nH]1 (single isomer, unassigned) [Example E14] | 0.1 to 1 | > 100 | – | – |
| Nc1nc2c(ncn2[C@@H]2O[C@@H]3COP(=O)(S)O[C@@H]4C(O)[C@H](n5ccc6c(N)ncnc65)O[C@@H]4COP(=O)(S)O[C@H]2C3O)c(=O)[nH]1 (single isomer, unassigned) [Example E15] | – | – | > 1 | > 100 |
| Nc1nc2c(ncn2[C@@H]2O[C@@H]3COP(=O)(S)OC4C(O)[C@H](n5ccc6c(N)ncnc65)O[C@@H]4COP(=O)(S)OC2C3O)c(=O)[nH]1 (single isomer, unassigned) [Example E16] | < 0.1 | < 30 | – | – |
| Nc1nc2c(ncn2[C@@H]2O[C@@H]3COP(=O)(S)OC4C(O)[C@H](n5ccc6c(N)ncnc65)O[C@@H]4COP(=O)(S)OC2C3O)c(=O)[nH]1 (single isomer, unassigned) [Example E17] | > 1 | > 100 | – | – |
| Nc1nc2c(ncn2[C@@H]2O[C@@H]3COP(=O)(S)OC4C(O)[C@H](n5ccc6c(N)ncnc65)O[C@@H]4COP(=O)(S)OC2C3O)c(=O)[nH]1 (single isomer, unassigned) [Example E18] | < 0.1 | < 30 | – | – |
| Nc1nc2c(ccn2[C@@H]2O[C@@H]3COP(=O)(S)OC4C(O)[C@H](n5ccc6c(N)ncnc65)O[C@@H]4COP(=O)(S)OC2C3O)c(=O)[nH]1 (single isomer, unassigned) [Example E20] | – | – | 0.1 to 1 | < 30 |
| Nc1nc2c(ccn2[C@@H]2O[C@@H]3COP(=O)(S)OC4C(O)[C@H](n5ccc6c(N)ncnc65)O[C@@H]4COP(=O)(S)OC2C3O)c(=O)[nH]1 (single isomer, unassigned) [Example E21] | 0.1 to 1 | < 30 | – | – |
| Nc1nc2c(ccn2[C@@H]2O[C@@H]3COP(=O)(S)OC4C(O)[C@H](n5ccc6c(N)ncnc65)O[C@@H]4COP(=O)(S)OC2C3O)c(=O)[nH]1 (single isomer, unassigned) [Example E22] | 0.1 to 1 | < 30 | – | – |
| BP1(=O)OC[C@H]2O[C@@H](n3cnc4c(N)ncnc43)C(O)[C@H]2OP(=O)(O)OC[C@H]2O[C@@H](n3cnc4c(=O)[nH]c(N)nc43)[C@@H](O1)C2O (single isomer, unassigned) [Example E25] | – | – | < 0.1 | < 30 |
| Nc1nc2c(ccn2[C@@H]2O[C@@H]3COP(=O)(O)OC4C(O)[C@H](n5ccc6c(N)ncnc65)O[C@@H]4COP(=O)(O)OC2C3O)c(=O)[nH]1 (stereo in doubt) [EA1] | – | – | 0.1 to 1 | > 100 |
| Nc1nc2c(ncn2[C@@H]2O[C@@H]3COP(=O)(O)OC4C(O)[C@H](n5cnc6c(N)ncnc65)O[C@@H]4COP(=O)(O)OC2C3OCC(F)(F)F)c(=O)[nH]1 (stereo in doubt) [EA2] | – | – | < 0.1 | < 30 |
